Assay results as given in US20160194359A1, “CELL-REACTIVE, LONG-ACTING, OR TARGETED COMPSTATIN ANALOGS AND RELATED COMPOSITIONS AND METHODS” (APELLIS PHARMACEUTICALS, INC., priority 2012, published 2016).
Non-standard residues stand in square brackets, D forms with d. Trp(6-F) = N[C@@H](Cc1c[nH]c2cc(F)ccc12)C(=O)O; Bpa = N[C@@H](Cc1ccc(C(=O)c2ccccc2)cc1)C(=O)O; 1Nal = N[C@@H](Cc1cccc2ccccc12)C(=O)O; 2Nal = N[C@@H](Cc1ccc2ccccc2c1)C(=O)O

Key:
[1] = system: complement activation; conditions: relative to compstatin amidated at the C-terminus; published data; cited from earlier work
[2] = previous study of CA28 administered intravenously (historical data); format: in vivo, Cynomolgus monkeys; conditions: for Serum concentration: CA28 (IV) 200 mg/kg, unit not in table
Description: Average values and standard deviations are readily calculated. There was notable consistency between animals.
The data points represent all PEGylated CA28 compound detected.

[3] = molecular target: T1, complement component C3 (human) (human, UniProt P01024 23-1663); test: cell-based or functional assay
[4] = molecular target: T1, complement component C3 (human); test: cell-based or functional assay; remark: listed apart in the source
[5] = molecular target: T1, complement component C3 (human); test: cell-based or functional assay; remark: listed apart in the source

Q: Which Activity over compstatin [1] does the source give for Ac-ICVVQDWGHHRCT-CONH2 [Ac-compstatin] here?
A: 3 × more

Q: Which Activity over compstatin [1] does the source give for “Ac-ICV(Bpa)QDWGAHRCT-COOH (Ac-ICV[Bpa]QDWGAHRCT-OH; not fully specified (bridges); printed as Ac-ICV(Bpa)QDWGAHRCT-COOH; cysteine pairing not given here) [Ac-V4(Bpa)/H9A-OH]” here?
A: 49 × more

Q: With “Ac-ICVWQDWGAHRCdT-COOH [Ac-V4W/H9A/T13dT-OH]” as the molecule, how does the Activity over compstatin [1] read?
A: 55 × more

Q: For “Ac-ICV(2-IgI)QDWGAHRCT-COOH (Ac-ICV[2‑IgI]QDWGAHRCT-OH; cysteine pairing not given here) [Ac-V42IgI/H9A-OH]”, which Activity over compstatin [1] is on record?
A: 37 × more

Q: Which Activity over compstatin [1] does the source give for “Ac-ICVWQD(5fW)GAHRCT-CONH2 [Ac-V4W/W7(5fW)/H9A]” here?
A: 121 × more

Q: Which Activity over compstatin [1] does the source give for “Ac-ICV(2-Nal)QDWGAHRCT-CONH2 (Ac-ICV[2Nal]QDWGAHRCT-NH2; cysteine pairing not given here) [Ac-V4(2-Nal)/H9A]” here?
A: 99 × more

Q: For “Ac-ICV(5-methyl-W)QDWGAHRCT-CONH2 [Ac-V4(5-MeW)/H9A]”, which Activity over compstatin [1] is on record?
A: 67 × more

Q: With “Ac-ICV(2-Nal)QDWGAHRCT-COOH (Ac-ICV[2Nal]QDWGAHRCT-OH; cysteine pairing not given here) [Ac V4(2-Nal)/H9A-OH]” as the molecule, how does the Activity over compstatin [1] read?
A: 38 × more

Q: With Ac-ICVYQDWGAHRCT-CONH2 [Ac-V4Y/H9A] as the molecule, how does the Activity over compstatin [1] read?
A: 14 × more

Q: With “Ac-ICVDhtQDWGAHRCT-COOH [Ac-V4Dht/H9A-OH]” as the molecule, how does the Activity over compstatin [1] read?
A: 5 × more

Q: For “Ac-ICV(5fW)QDWGAHRCT-CONH2 [Ac-V4(5fW)/H9A]”, which Activity over compstatin [1] is on record?
A: 31 × more

Q: Which Activity over compstatin [1] does the source give for “H-GICV(6fW)QD(6fW)GAHRCTN-COON (H-GICV[Trp(6-F)]QD[Trp(6-F)]GAHRCTN-OH; not fully specified (bridges); cysteine pairing not given here) [+G/V4(6fW)/W7(6fW)H9A+N-OH]” here?
A: 126 × more

Q: With “Ac-ICV(2-IgI)QDWGAHRCT-CONH2 (Ac-ICV[2‑IgI]QDWGAHRCT-NH2; cysteine pairing not given here) [Ac-V42IgI/H9A]” as the molecule, how does the Activity over compstatin [1] read?
A: 39 × more

Q: For “Ac-ICV(Bpa)QDWGAHRCT-CONH2 (Ac-ICV[Bpa]QDWGAHRCT-NH2; not fully specified (bridges); printed as Ac-ICV(Bpa)QDWGAHRCT-CONH2; cysteine pairing not given here) [Ac-V4(Bpa)/H9A]”, which Activity over compstatin [1] is on record?
A: 86 × more

Q: With “Ac-ICV(1-Nal)QDWGAHRCT-COOH (Ac-ICV[1Nal]QDWGAHRCT-OH; cysteine pairing not given here) [Ac V4(1-Nal)/H9A-OH]” as the molecule, how does the Activity over compstatin [1] read?
A: 30 × more

Q: What does the source list for CC[C@H](C)[C@H](NC(C)=O)C(=O)N[C@H]1CSSC[C@@H](C(=O)N[C@H](C(N)=O)[C@@H](C)O)NC(=O)[C@H](CCCNC(=N)N)NC(=O)[C@H](Cc2cnc[nH]2)NC(=O)[C@H](C)NC(=O)CNC(=O)[C@H](Cc2c[nH]c3ccccc23)NC(=O)[C@H](CC(=O)O)NC(=O)[C@H](CCC(N)=O)NC(=O)[C@H](Cc2cn(C)c3ccccc23)NC(=O)[C@H](C(C)C)NC1=O [CA28]?
A: Serum concentration ([2]; time 0.02 days, historical data): 34; Serum concentration ([2]; time 0.042 days, historical data): 17; Serum concentration ([2]; time 0.167 days, historical data): 9; Serum concentration ([2]; time 0.333 days, historical data): 5; Serum concentration ([2]; time 1 day, historical data): 1.5; level at 4.008 h ([2]; cynomolgus monkey, serum, iv, 200 mg/kg, read-out: Serum Concentration): 9000 ng/mL; level at 0.48 h ([2]; cynomolgus monkey, serum, IV 200 mg/kg, time 0.02 days, historical data, HPLC, read-out: Serum Concentration): 34000 ng/mL; level at 1.008 h ([2]; cynomolgus monkey, serum, IV 200 mg/kg, time 0.042 days, historical data, HPLC, read-out: Serum Concentration): 17000 ng/mL; level at 7.992 h ([2]; cynomolgus monkey, serum, IV 200 mg/kg, time 0.333 days, historical data, HPLC, read-out: Serum Concentration): 5000 ng/mL; level at 24 h ([2]; cynomolgus monkey, serum, IV 200 mg/kg, time 1 day, historical data, HPLC, read-out: Serum Concentration): 1500 ng/mL

Q: Which Activity over compstatin [1] does the source give for Ac-ICVWQDWGAHRCT-CONH2 [Ac-V4W/H9A] here?
A: 45 × more

B1: CA28-AEEAc-Lys(mPEG40K-hexanoyl) (peptide)
peptide: ICVWQDWGAHRCTK
modifications: N-terminal acetyl; 1-methyl-tryptophan at position 4; disulfide Cys2-Cys12; AEEAc linker after Thr13; linear 40 kD mPEG (NOF ME-400HS, hexanoyl) on the Lys side chain; C-terminal amide
Q: With B1 as the molecule, how does the “IC50 (read off the curve); classical pathway complement activation (C3b deposition ELISA, human plasma)” value (“IC50 (read off the curve)” below) [3] read?
A: ~700 nM

B2: CA28-AEEAc-Lys(mPEG40K-carbonyl) (peptide)
peptide: ICVWQDWGAHRCTK
modifications: not fully specified; N-terminal acetyl; 1-methyl-tryptophan at position 4; disulfide Cys2-Cys12; AEEAc linker after Thr13; linear 40 kD mPEG (NOF ME-400TS, carbonyl) on the Lys side chain; C-terminal amide
Q: For B2, which “IC50 (read off the curve)” value [3] is on record?
A: ~700 nM

B3: CA28-AEEAc-Lys-(PEG40k) (peptide)
peptide: ICVWQDWGAHRCTK
modifications: N-terminal acetyl; 1-methyl-tryptophan at position 4; disulfide Cys2-Cys12; AEEAc linker after Thr13; linear 40 kD mPEG (NOF ME-400GS, glutaryl) on the Lys side chain; C-terminal amide
Q: With B3 as the molecule, how does the “IC50 (read off the curve)” value [3] read?
A: ~700 nM

Q: What about the “IC50, classical complement inhibition assay (C3b deposition ELISA)” value [4] of the same molecule?
A: 1290 nM

B4: CA28-AEEAc-Lys(mPEG40K-succinyl) (peptide)
peptide: ICVWQDWGAHRCTK
modifications: N-terminal acetyl; 1-methyl-tryptophan at position 4; disulfide Cys2-Cys12; AEEAc linker after Thr13; linear 40 kD mPEG (NOF ME-400CS, succinyl) on the Lys side chain; C-terminal amide
Q: With B4 as the molecule, how does the “IC50 (read off the curve)” value [3] read?
A: ~700 nM

B5: CA28-AEEAc-Lys-(PEG30k) (peptide)
peptide: ICVWQDWGAHRCTK
modifications: N-terminal acetyl; 1-methyl-tryptophan at position 4; disulfide Cys2-Cys12; AEEAc (8-amino-3,6-dioxaoctanoyl) linker after Thr13; linear 30 kD mPEG (NOF ME-300GS) on the Lys side chain; C-terminal amide
Q: Which “IC50, classical complement inhibition assay (C3b deposition ELISA)” value [4] does the source give for B5 here?
A: 1260 nM

B6: CA28-2GS-BF (bifunctionalized PEG-based compstatin analog, GS type) (peptide)
peptide: ICVWQDWGAHRCTK
modifications: N-terminal acetyl; 1-methyl-tryptophan at position 4; disulfide Cys2-Cys12; AEEAc linker after Thr13; Lys side chain coupled to one end of a bifunctional linear 40 kD PEG (glutaryl, GS type); C-terminal amide
Q: What does the source list for B6?
A: % Parent in Q1 (Type III cells with high C3d deposition); modified Ham's assay, 50 ug/ml [5]: 0.01%; % Parent in Q2 (Type I and II cells with high C3d deposition); modified Ham's assay, 50 ug/ml [5]: 0.01%; % Parent in Q3 (Type III cells without significant C3d deposition); modified Ham's assay, 50 ug/ml [5]: 61.5%; % Parent in Q4 (Type I and II cells without significant C3d deposition); modified Ham's assay, 50 ug/ml [5]: 38.5%
